{"source": "patent US20100273711A1", "about": "“INDIVIDUALIZED CANCER TREATMENTS” (priority 2007, published 2010)", "origin": "cited, not measured here", "key": {"ME43": {"test_system": "ME43", "details": "cell line ME43, melanoma; cited from earlier work"}, "SKMel19": {"test_system": "SKMel19", "details": "cell line SKMel19, melanoma; cited from earlier work"}, "A375": {"test_system": "A375", "details": "cell line A375, melanoma; cited from earlier work"}, "R103": {"test_system": "R103", "details": "cell line R103, breast ca; cited from earlier work"}, "BT20": {"test_system": "BT20", "details": "cell line BT20, breast ca; cited from earlier work"}, "181/85p": {"test_system": "181/85p", "details": "cell line 181/85p, pancreas ca; cited from earlier work"}, "SNU182": {"test_system": "SNU182", "details": "cell line SNU182, HCC; cited from earlier work"}, "SW13": {"test_system": "SW13", "details": "cell line SW13, adrenal cortex carcinoma; cited from earlier work"}, "CX-2": {"test_system": "CX-2", "details": "cell line CX-2, colon ca; cited from earlier work"}, "SNU449": {"test_system": "SNU449", "details": "cell line SNU449, HCC; cited from earlier work"}, "MeWo": {"test_system": "MeWo", "details": "cell line MeWo, melanoma; cited from earlier work"}, "257p": {"test_system": "257p", "details": "cell line 257p, gastric ca; cited from earlier work"}, "SKBR3": {"test_system": "SKBR3", "details": "cell line SKBR3, breast ca; cited from earlier work"}, "OVCAR3": {"test_system": "OVCAR3", "details": "cell line OVCAR3, ovarian ca; cited from earlier work"}, "Hep3B": {"test_system": "Hep3B", "details": "cell line Hep3B, HCC; cited from earlier work"}, "HRT-18": {"test_system": "HRT-18", "details": "cell line HRT-18, colon ca; cited from earlier work"}, "SKOV-3": {"test_system": "SKOV-3", "details": "cell line SKOV-3, ovarian ca; cited from earlier work"}, "FU-OV-1": {"test_system": "FU-OV-1", "details": "cell line FU-OV-1, ovarian ca; cited from earlier work"}, "SNU475": {"test_system": "SNU475", "details": "cell line SNU475, HCC; cited from earlier work"}, "R193": {"test_system": "R193", "details": "cell line R193, breast ca; cited from earlier work"}, "ES-2": {"test_system": "ES-2", "details": "cell line ES-2, ovarian ca; cited from earlier work"}, "Du145": {"test_system": "Du145", "details": "cell line Du145, prostate ca; cited from earlier work"}, "SNU423": {"test_system": "SNU423", "details": "cell line SNU423, HCC; cited from earlier work"}, "DV-90": {"test_system": "DV-90", "details": "cell line DV-90, lung ca; cited from earlier work"}, "C8161": {"test_system": "C8161", "details": "cell line C8161, melanoma; cited from earlier work"}, "HT-29": {"test_system": "HT-29", "details": "cell line HT-29, colon ca; cited from earlier work"}, "OAW42": {"test_system": "OAW42", "details": "cell line OAW42, ovarian ca; cited from earlier work"}}, "data": [{"compound": "N.N.[Cl][Pt][Cl]", "note": "[Cisplatin, cisplatin]", "values": [{"measurement": "Cisplatin Resistant (Res) or Sensitive (Sen)", "setting": "ME43", "result": "Res"}, {"measurement": "Cisplatin Resistant (Res) or Sensitive (Sen)", "setting": "SKMel19", "result": "Res"}, {"measurement": "Cisplatin Resistant (Res) or Sensitive (Sen)", "setting": "A375", "result": "Res"}, {"measurement": "Cisplatin Resistant (Res) or Sensitive (Sen)", "setting": "R103", "result": "Sen"}, {"measurement": "Cisplatin Resistant (Res) or Sensitive (Sen)", "setting": "BT20", "result": "Sen"}, {"measurement": "Cisplatin Resistant (Res) or Sensitive (Sen)", "setting": "181/85p", "result": "Res"}, {"measurement": "Cisplatin Resistant (Res) or Sensitive (Sen)", "setting": "SNU182", "result": "Res"}, {"measurement": "Cisplatin Resistant (Res) or Sensitive (Sen)", "setting": "SW13", "result": "Res"}, {"measurement": "Cisplatin Resistant (Res) or Sensitive (Sen)", "setting": "CX-2", "result": "Res"}, {"measurement": "Cisplatin Resistant (Res) or Sensitive (Sen)", "setting": "SNU449", "result": "Res"}, {"measurement": "Cisplatin Resistant (Res) or Sensitive (Sen)", "setting": "MeWo", "result": "Res"}, {"measurement": "Cisplatin Resistant (Res) or Sensitive (Sen)", "setting": "257p", "result": "Res"}, {"measurement": "Cisplatin Resistant (Res) or Sensitive (Sen)", "setting": "SKBR3", "result": "Res"}, {"measurement": "Cisplatin Resistant (Res) or Sensitive (Sen)", "setting": "OVCAR3", "result": "Sen"}, {"measurement": "Cisplatin Resistant (Res) or Sensitive (Sen)", "setting": "Hep3B", "result": "Res"}, {"measurement": "Cisplatin Resistant (Res) or Sensitive (Sen)", "setting": "HRT-18", "result": "Res"}, {"measurement": "Cisplatin Resistant (Res) or Sensitive (Sen)", "setting": "SKOV-3", "result": "Res"}, {"measurement": "Cisplatin Resistant (Res) or Sensitive (Sen)", "setting": "FU-OV-1", "result": "Sen"}, {"measurement": "Cisplatin Resistant (Res) or Sensitive (Sen)", "setting": "SNU475", "result": "Res"}, {"measurement": "Cisplatin Resistant (Res) or Sensitive (Sen)", "setting": "R193", "result": "Sen"}, {"measurement": "Cisplatin Resistant (Res) or Sensitive (Sen)", "setting": "ES-2", "result": "Res"}, {"measurement": "Cisplatin Resistant (Res) or Sensitive (Sen)", "setting": "Du145", "result": "Res"}, {"measurement": "Cisplatin Resistant (Res) or Sensitive (Sen)", "setting": "SNU423", "result": "Res"}, {"measurement": "Cisplatin Resistant (Res) or Sensitive (Sen)", "setting": "DV-90", "result": "Sen"}, {"measurement": "Cisplatin Resistant (Res) or Sensitive (Sen)", "setting": "C8161", "result": "Res"}, {"measurement": "Cisplatin Resistant (Res) or Sensitive (Sen)", "setting": "HT-29", "result": "Res"}, {"measurement": "Cisplatin Resistant (Res) or Sensitive (Sen)", "setting": "OAW42", "result": "Sen"}]}]}
